# Results taken from PMC9571063 (Molecules, 2022).
# Like-named read-outs stand apart in the source and are kept apart here.
# Experiments:
# RIOK1 = target: T1, RIOK1 (Homo sapiens, UniProt Q9BRS2); experiment: KINOMEscan; type: binding; settings: read-out: Percent Control
# T1 construct: purchased Eurofins DiscoverX KINOMEscan (scanMAX 468)
# BMPR1B = target: T2, BMPR1B (Homo sapiens, UniProt O00238); experiment: KINOMEscan; type: binding; settings: read-out: Percent Control
# T2 construct: purchased Eurofins DiscoverX KINOMEscan (scanMAX 468)
# T2 sequence (O00238 14-502): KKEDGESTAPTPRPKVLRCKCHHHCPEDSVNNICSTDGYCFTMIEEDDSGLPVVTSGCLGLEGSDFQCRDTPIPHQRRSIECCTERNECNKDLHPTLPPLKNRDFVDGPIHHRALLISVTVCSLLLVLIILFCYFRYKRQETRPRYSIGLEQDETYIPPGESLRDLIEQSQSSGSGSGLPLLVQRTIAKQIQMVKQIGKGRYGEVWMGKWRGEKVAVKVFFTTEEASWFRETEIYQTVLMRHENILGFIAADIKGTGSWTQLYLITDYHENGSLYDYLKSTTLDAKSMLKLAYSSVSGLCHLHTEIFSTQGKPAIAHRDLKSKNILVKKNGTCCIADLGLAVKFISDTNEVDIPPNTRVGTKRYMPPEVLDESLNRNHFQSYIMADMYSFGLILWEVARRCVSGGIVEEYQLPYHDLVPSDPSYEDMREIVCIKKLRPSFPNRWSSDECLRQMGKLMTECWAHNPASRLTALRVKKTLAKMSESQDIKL
# WEE1 = target: T3, WEE1 (Homo sapiens, UniProt P30291); experiment: KINOMEscan; type: binding; settings: read-out: Percent Control
# T3 construct: purchased Eurofins DiscoverX KINOMEscan (scanMAX 468)
# STK33 = target: T4, STK33 (Homo sapiens, UniProt Q9BYT3); experiment: KINOMEscan; type: binding; settings: read-out: Percent Control
# T4 construct: purchased Eurofins DiscoverX KINOMEscan (scanMAX 468)
# FGFR2 = target: T5, FGFR2 (Homo sapiens, UniProt P21802); experiment: KINOMEscan; type: binding; settings: read-out: Percent Control
# T5 construct: purchased Eurofins DiscoverX KINOMEscan (scanMAX 468)
# BTK = target: T6, BTK (Homo sapiens, UniProt Q06187); experiment: KINOMEscan; type: binding; settings: read-out: Percent Control
# T6 construct: purchased Eurofins DiscoverX KINOMEscan (scanMAX 468)
# SYK = target: T7, SYK (Homo sapiens, UniProt P43405); experiment: KINOMEscan; type: binding; settings: read-out: Percent Control
# T7 construct: purchased Eurofins DiscoverX KINOMEscan (scanMAX 468)
# NEK10 = target: T8, NEK10 (Homo sapiens, UniProt Q6ZWH5); experiment: KINOMEscan; type: binding; settings: read-out: Percent Control
# T8 construct: purchased Eurofins DiscoverX KINOMEscan (scanMAX 468)
# FGR = target: T9, FGR (Homo sapiens, UniProt P09769); experiment: KINOMEscan; type: binding; settings: read-out: Percent Control
# T9 construct: purchased Eurofins DiscoverX KINOMEscan (scanMAX 468)
# BMX = target: T10, BMX (Homo sapiens, UniProt P51813); experiment: KINOMEscan; type: binding; settings: read-out: Percent Control
# T10 construct: purchased Eurofins DiscoverX KINOMEscan (scanMAX 468)
# ANKK1 = target: T11, ANKK1 (Homo sapiens, UniProt Q8NFD2); experiment: KINOMEscan; type: binding; settings: read-out: Percent Control
# T11 construct: purchased Eurofins DiscoverX KINOMEscan (scanMAX 468)
# TESK1 = target: T12, TESK1 (Homo sapiens, UniProt Q15569); experiment: KINOMEscan; type: binding; settings: read-out: Percent Control
# T12 construct: purchased Eurofins DiscoverX KINOMEscan (scanMAX 468)
# MARK4 = target: T13, MARK4 (Homo sapiens, UniProt Q96L34); experiment: KINOMEscan; type: binding; settings: read-out: Percent Control
# T13 construct: purchased Eurofins DiscoverX KINOMEscan (scanMAX 468)
# RET(V804L) = target: T14, RET(V804L) (Homo sapiens, UniProt P07949, V804L); experiment: KINOMEscan; type: binding; settings: read-out: Percent Control
# T14 construct: purchased Eurofins DiscoverX KINOMEscan (scanMAX 468)
# [1] = target: T15, ABL1(T315I)-nonphosphorylated (Homo sapiens, UniProt P00519, T315I); experiment: KINOMEscan; type: binding; settings: read-out: Percent Control
# T15 construct: purchased Eurofins DiscoverX KINOMEscan (scanMAX 468)
# IKK-alpha = target: T16, IKK-alpha (Homo sapiens, UniProt O15111); experiment: KINOMEscan; type: binding; settings: read-out: Percent Control
# T16 construct: purchased Eurofins DiscoverX KINOMEscan (scanMAX 468)
# T16 sequence (O15111 whole entry): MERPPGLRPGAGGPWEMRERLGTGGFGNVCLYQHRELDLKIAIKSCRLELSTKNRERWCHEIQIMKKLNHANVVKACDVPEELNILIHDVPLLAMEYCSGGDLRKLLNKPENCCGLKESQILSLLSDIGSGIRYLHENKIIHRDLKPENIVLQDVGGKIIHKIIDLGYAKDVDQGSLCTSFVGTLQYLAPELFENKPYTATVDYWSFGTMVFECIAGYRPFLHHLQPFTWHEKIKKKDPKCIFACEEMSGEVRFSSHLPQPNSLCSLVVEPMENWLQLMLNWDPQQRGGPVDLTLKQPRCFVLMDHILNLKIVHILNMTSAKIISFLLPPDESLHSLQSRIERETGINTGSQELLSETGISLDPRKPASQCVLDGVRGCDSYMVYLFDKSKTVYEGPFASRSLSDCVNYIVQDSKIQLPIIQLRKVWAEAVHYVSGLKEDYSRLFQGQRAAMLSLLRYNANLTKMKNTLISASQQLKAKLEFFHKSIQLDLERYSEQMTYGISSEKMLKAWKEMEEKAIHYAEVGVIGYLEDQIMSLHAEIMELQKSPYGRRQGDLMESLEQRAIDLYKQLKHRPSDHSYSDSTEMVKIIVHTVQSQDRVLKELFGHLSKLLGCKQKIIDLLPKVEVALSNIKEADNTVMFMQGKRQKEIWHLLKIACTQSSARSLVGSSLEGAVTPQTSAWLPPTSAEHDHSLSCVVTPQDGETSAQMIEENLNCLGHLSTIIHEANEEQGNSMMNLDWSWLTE
# EPHA5 = target: T17, EPHA5 (Homo sapiens, UniProt P54756); experiment: KINOMEscan; type: binding; settings: read-out: Percent Control
# T17 construct: purchased Eurofins DiscoverX KINOMEscan (scanMAX 468)
# CSNK2A1 = target: T18, CSNK2A1 (Homo sapiens, UniProt P68400); experiment: KINOMEscan; type: binding; settings: read-out: Percent Control
# T18 construct: purchased Eurofins DiscoverX KINOMEscan (scanMAX 468)
# KIT(D816H) = target: T19, KIT(D816H) (Homo sapiens, UniProt P10721, D816H); experiment: KINOMEscan; type: binding; settings: read-out: Percent Control
# T19 construct: purchased Eurofins DiscoverX KINOMEscan (scanMAX 468)
# MTOR = target: T20, MTOR (Homo sapiens, UniProt P42345); experiment: KINOMEscan; type: binding; settings: read-out: Percent Control
# T20 construct: purchased Eurofins DiscoverX KINOMEscan (scanMAX 468)
# CSNK1G3 = target: T21, CSNK1G3 (Homo sapiens, UniProt Q9Y6M4); experiment: KINOMEscan; type: binding; settings: read-out: Percent Control
# T21 construct: purchased Eurofins DiscoverX KINOMEscan (scanMAX 468)
# TRKB = target: T22, TRKB (Homo sapiens, UniProt Q16620); experiment: KINOMEscan; type: binding; settings: read-out: Percent Control
# T22 construct: purchased Eurofins DiscoverX KINOMEscan (scanMAX 468)
# MEK1 = target: T23, MEK1 (Homo sapiens, UniProt Q02750); experiment: KINOMEscan; type: binding; settings: read-out: Percent Control
# T23 construct: purchased Eurofins DiscoverX KINOMEscan (scanMAX 468)
# PIK3CA(I800L) = target: T24, PIK3CA(I800L) (Homo sapiens, UniProt P42336, I800L); experiment: KINOMEscan; type: binding; settings: read-out: Percent Control
# T24 construct: purchased Eurofins DiscoverX KINOMEscan (scanMAX 468)
# EPHB2 = target: T25, EPHB2 (Homo sapiens, UniProt P29323); experiment: KINOMEscan; type: binding; settings: read-out: Percent Control
# T25 construct: purchased Eurofins DiscoverX KINOMEscan (scanMAX 468)
# T25 sequence (P29323 19-1055): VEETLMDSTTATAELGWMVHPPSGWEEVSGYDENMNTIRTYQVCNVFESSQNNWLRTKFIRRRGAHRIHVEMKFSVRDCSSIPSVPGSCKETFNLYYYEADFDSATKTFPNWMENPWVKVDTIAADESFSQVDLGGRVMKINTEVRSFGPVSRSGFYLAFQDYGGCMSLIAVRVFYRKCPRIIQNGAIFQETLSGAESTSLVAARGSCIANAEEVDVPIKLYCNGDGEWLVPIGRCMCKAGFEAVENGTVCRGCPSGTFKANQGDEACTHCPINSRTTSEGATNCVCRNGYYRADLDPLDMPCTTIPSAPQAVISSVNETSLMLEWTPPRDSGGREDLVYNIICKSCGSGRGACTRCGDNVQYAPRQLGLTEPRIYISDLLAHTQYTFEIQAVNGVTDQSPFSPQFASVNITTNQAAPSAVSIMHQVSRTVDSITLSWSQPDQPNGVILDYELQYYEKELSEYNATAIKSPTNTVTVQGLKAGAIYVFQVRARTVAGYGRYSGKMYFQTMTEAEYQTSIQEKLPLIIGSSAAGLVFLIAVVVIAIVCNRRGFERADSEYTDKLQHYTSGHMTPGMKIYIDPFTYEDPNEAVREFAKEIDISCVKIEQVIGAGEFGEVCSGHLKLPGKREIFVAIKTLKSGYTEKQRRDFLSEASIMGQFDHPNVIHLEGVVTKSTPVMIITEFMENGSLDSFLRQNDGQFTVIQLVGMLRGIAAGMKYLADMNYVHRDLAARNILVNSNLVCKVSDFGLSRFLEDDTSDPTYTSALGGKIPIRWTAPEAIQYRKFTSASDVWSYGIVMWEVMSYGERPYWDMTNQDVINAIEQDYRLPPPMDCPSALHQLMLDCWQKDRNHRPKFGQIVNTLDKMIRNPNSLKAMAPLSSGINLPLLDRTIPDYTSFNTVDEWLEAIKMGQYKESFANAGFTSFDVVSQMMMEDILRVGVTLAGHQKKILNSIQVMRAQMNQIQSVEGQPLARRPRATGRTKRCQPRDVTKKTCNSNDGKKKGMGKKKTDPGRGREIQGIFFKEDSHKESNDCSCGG
# HCK = target: T26, HCK (Homo sapiens, UniProt P08631); experiment: KINOMEscan; type: binding; settings: read-out: Percent Control
# T26 construct: purchased Eurofins DiscoverX KINOMEscan (scanMAX 468)
# NDR2 = target: T27, NDR2 (Homo sapiens, UniProt Q9Y2H1); experiment: KINOMEscan; type: binding; settings: read-out: Percent Control
# T27 construct: purchased Eurofins DiscoverX KINOMEscan (scanMAX 468)
# HIPK3 = target: T28, HIPK3 (Homo sapiens, UniProt Q9H422); experiment: KINOMEscan; type: binding; settings: read-out: Percent Control
# T28 construct: purchased Eurofins DiscoverX KINOMEscan (scanMAX 468)
# INSRR = target: T29, INSRR (Homo sapiens, UniProt P14616); experiment: KINOMEscan; type: binding; settings: read-out: Percent Control
# T29 construct: purchased Eurofins DiscoverX KINOMEscan (scanMAX 468)
# T29 sequence (P14616 27-1297): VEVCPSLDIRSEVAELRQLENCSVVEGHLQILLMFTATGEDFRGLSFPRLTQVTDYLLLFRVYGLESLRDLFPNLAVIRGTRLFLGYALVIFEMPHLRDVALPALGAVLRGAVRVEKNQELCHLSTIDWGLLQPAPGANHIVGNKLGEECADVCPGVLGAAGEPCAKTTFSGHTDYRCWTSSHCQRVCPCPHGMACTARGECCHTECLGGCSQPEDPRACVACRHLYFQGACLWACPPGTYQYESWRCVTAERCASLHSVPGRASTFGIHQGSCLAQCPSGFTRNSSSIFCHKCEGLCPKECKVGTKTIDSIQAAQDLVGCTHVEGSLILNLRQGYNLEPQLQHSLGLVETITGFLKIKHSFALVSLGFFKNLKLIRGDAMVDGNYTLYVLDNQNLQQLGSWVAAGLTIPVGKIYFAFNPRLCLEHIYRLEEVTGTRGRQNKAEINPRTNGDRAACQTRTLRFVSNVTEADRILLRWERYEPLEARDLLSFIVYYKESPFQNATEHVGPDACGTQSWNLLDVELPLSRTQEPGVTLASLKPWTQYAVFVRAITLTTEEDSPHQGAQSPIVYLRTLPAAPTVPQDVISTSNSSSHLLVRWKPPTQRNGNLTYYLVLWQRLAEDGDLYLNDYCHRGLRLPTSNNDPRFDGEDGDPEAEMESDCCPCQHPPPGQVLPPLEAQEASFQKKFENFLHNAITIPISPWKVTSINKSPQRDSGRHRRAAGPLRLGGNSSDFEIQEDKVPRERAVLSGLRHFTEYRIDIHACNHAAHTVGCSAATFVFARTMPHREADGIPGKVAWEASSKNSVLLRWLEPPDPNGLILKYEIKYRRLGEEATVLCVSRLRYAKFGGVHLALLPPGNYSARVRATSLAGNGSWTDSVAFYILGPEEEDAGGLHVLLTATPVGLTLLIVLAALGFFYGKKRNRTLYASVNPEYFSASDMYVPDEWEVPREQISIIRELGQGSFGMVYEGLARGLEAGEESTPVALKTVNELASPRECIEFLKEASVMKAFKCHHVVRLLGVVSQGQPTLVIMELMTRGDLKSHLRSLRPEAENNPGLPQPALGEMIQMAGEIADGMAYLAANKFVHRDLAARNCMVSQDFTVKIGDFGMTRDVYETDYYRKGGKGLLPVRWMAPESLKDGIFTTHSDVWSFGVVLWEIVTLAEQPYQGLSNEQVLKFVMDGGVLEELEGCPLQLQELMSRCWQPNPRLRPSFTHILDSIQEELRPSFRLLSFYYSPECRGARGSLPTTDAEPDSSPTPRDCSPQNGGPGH
# TIE1 = target: T30, TIE1 (Homo sapiens, UniProt P35590); experiment: KINOMEscan; type: binding; settings: read-out: Percent Control
# T30 construct: purchased Eurofins DiscoverX KINOMEscan (scanMAX 468)
# PIP5K1C = target: T31, PIP5K1C (Homo sapiens, UniProt O60331); experiment: KINOMEscan; type: binding; settings: read-out: Percent Control
# T31 construct: purchased Eurofins DiscoverX KINOMEscan (scanMAX 468)
# PAK4 = target: T32, PAK4 (Homo sapiens, UniProt O96013); experiment: KINOMEscan; type: binding; settings: read-out: Percent Control
# T32 construct: purchased Eurofins DiscoverX KINOMEscan (scanMAX 468)
# [2] = target: T33, JAK1(JH2domain-pseudokinase) (Homo sapiens, UniProt P23458); experiment: KINOMEscan; type: binding; settings: read-out: Percent Control
# T33 construct: JAK1(JH2domain-pseudokinase); purchased Eurofins DiscoverX KINOMEscan (scanMAX 468)
# T33 sequence (P23458 561-860 limits assumed): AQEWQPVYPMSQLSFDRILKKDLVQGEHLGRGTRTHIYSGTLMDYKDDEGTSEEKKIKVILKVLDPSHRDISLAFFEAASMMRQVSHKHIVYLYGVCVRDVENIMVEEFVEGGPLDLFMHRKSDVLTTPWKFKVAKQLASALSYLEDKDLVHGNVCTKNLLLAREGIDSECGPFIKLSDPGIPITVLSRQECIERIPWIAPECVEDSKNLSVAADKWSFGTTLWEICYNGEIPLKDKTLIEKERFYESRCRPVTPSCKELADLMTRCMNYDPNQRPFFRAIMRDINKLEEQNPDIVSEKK
# EGFR(L747-T751del,Sins) = experiment: KINOMEscan; type: binding, human; settings: 1 μM
# PRKD3 = target: T34, PRKD3 (Homo sapiens, UniProt O94806); experiment: KINOMEscan; type: binding; settings: read-out: Percent Control
# T34 construct: purchased Eurofins DiscoverX KINOMEscan (scanMAX 468)
# ERK5 = target: T35, ERK5 (Homo sapiens, UniProt Q13164); experiment: KINOMEscan; type: binding; settings: read-out: Percent Control
# T35 construct: purchased Eurofins DiscoverX KINOMEscan (scanMAX 468)
# ABL1-phosphorylated = target: T36, ABL1-phosphorylated (Homo sapiens, UniProt P00519); experiment: KINOMEscan; type: binding; settings: read-out: Percent Control
# T36 construct: purchased Eurofins DiscoverX KINOMEscan (scanMAX 468)
# PDGFRB = target: T37, PDGFRB (Homo sapiens, UniProt P09619); experiment: KINOMEscan; type: binding; settings: read-out: Percent Control
# T37 construct: purchased Eurofins DiscoverX KINOMEscan (scanMAX 468)
# RIPK4 = target: T38, RIPK4 (Homo sapiens, UniProt P57078); experiment: KINOMEscan; type: binding; settings: read-out: Percent Control
# T38 construct: purchased Eurofins DiscoverX KINOMEscan (scanMAX 468)
# Hs_CDK9/CyclinT = target: T39, Hs_CDK9/CyclinT (Homo sapiens, UniProt P50750); parameters: method as in ref 13 (a number printed in a supplementary file, which may have a reference list of its own: not looked up in the article's list); settings: DB18, cited from earlier work
# T39 construct: host or cells: Sf9 insect cells (baculovirus)
# T39 sequence (P50750 whole entry): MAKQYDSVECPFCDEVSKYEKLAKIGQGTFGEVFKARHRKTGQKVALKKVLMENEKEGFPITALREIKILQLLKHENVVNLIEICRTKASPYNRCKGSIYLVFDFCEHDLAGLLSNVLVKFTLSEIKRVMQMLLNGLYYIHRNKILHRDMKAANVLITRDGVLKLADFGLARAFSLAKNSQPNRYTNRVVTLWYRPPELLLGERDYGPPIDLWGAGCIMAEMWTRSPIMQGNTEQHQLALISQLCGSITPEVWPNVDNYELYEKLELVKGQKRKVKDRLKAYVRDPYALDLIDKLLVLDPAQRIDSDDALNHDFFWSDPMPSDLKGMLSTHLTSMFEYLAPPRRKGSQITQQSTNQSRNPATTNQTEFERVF
# T39 sequence (O60563 whole entry partner): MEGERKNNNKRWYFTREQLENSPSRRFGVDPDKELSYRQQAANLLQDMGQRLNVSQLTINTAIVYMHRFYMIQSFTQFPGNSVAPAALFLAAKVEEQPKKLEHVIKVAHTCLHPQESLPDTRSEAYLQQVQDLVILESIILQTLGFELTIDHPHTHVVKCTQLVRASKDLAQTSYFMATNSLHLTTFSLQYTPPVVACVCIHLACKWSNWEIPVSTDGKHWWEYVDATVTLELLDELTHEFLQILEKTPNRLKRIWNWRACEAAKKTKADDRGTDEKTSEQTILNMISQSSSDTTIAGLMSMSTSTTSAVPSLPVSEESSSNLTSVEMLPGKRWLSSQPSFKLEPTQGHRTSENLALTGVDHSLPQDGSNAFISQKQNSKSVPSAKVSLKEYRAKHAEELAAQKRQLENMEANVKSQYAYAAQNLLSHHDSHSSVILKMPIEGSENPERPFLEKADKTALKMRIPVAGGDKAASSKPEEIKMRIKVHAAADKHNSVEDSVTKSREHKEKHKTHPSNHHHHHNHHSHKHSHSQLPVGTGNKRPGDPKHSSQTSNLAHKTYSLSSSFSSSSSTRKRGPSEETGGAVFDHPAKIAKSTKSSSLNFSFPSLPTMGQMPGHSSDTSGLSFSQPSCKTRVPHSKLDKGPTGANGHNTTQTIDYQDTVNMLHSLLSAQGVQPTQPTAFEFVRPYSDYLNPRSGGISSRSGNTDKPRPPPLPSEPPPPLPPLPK
# NEK2 = target: T40, NEK2 (Homo sapiens, UniProt P51955); experiment: KINOMEscan; type: binding; settings: read-out: Percent Control
# T40 construct: purchased Eurofins DiscoverX KINOMEscan (scanMAX 468)
smiles,measurement,setting,value
Cc1ccc(-n2cc(COc3cccc4cnc(Nc5cccc(Cl)c5)nc34)nn2)c([N+](=O)[O-])c1 [DB18],remaining binding at 1 µM,RIOK1,100%
same,remaining binding at 1 µM,BMPR1B,96%
same,remaining binding at 1 µM,WEE1,100%
same,remaining binding at 1 µM,STK33,100%
same,remaining binding at 1 µM,FGFR2,100%
same,remaining binding at 1 µM,BTK,100%
same,remaining binding at 1 µM,SYK,97%
same,remaining binding at 1 µM,NEK10,100%
same,remaining binding at 1 µM,FGR,96%
same,remaining binding at 1 µM,BMX,100%
same,remaining binding at 1 µM,ANKK1,100%
same,remaining binding at 1 µM,TESK1,95%
same,remaining binding at 1 µM,MARK4,100%
same,remaining binding at 1 µM,RET(V804L),100%
same,remaining binding at 1 µM,[1],89%
same,remaining binding at 1 µM,IKK-alpha,100%
same,remaining binding at 1 µM,EPHA5,100%
same,remaining binding at 1 µM,CSNK2A1,75%
same,remaining binding at 1 µM,KIT(D816H),100%
same,remaining binding at 1 µM,MTOR,55%
same,remaining binding at 1 µM,CSNK1G3,100%
same,remaining binding at 1 µM,TRKB,86%
same,remaining binding at 1 µM,MEK1,97%
same,remaining binding at 1 µM,PIK3CA(I800L),77%
same,remaining binding at 1 µM,EPHB2,100%
same,remaining binding at 1 µM,HCK,100%
same,remaining binding at 1 µM,NDR2,95%
same,remaining binding at 1 µM,HIPK3,46%
same,remaining binding at 1 µM,INSRR,100%
same,remaining binding at 1 µM,TIE1,100%
same,remaining binding at 1 µM,PIP5K1C,100%
same,remaining binding at 1 µM,PAK4,100%
same,remaining binding at 1 µM,[2],100%
same,Percent Control,"EGFR(L747-T751del,Sins)",100 % Ctrl
same,remaining binding at 1 µM,PRKD3,100%
same,remaining binding at 1 µM,ERK5,100%
same,remaining binding at 1 µM,ABL1-phosphorylated,98%
same,remaining binding at 1 µM,PDGFRB,100%
same,remaining binding at 1 µM,RIPK4,82%
same,% of residual activity Hs_CDK9/CyclinT,Hs_CDK9/CyclinT; 1 µM,90%
same,% of residual activity Hs_CDK9/CyclinT,Hs_CDK9/CyclinT; 10 µM,54%
same,remaining binding at 1 µM,NEK2,100%
